Experiment [1] concerns OCI-AML3 (NPMc+ mutant type). The experiment can be described thus: In vitro growth inhibition (GI50), OCI-AML3. As to conditions: Homo sapiens, OCI-AML-3; Cell lines of leukemia; read-out: GI 50 OCI- AML3 NPMc+. Type of experiment: cell-based.
A further experiment concerns NCI-H1993 (c-MET amp). The experiment can be described thus: In vitro growth inhibition (GI50), NCI-H1993. To be noted: Homo sapiens, H1993, cMET Amp+. Type of experiment: cell-based. From the text: Tumor cell line is an effective cell model for studying the inhibition of tumor cell growth or proliferation in vitro. In the present invention, a representative tumor cell line was selected to determine the cell growth inhibition activity of the present compound. All cell lines used were from ATCC, DSMZ, and the Cell Bank of the Chinese Academy of Sciences. Cell culture conditions and methods were in accordance with the requirements of each cell line. Cells were subcultured in vitro for no more than 3 passages each time, and as required, single-clone purification and identification of cell lines could be carried out.
The cell culture media used were RPMI1640 (Gibco), MEM (Gibco), McCOY'S5A (Gibco), and IMDM (Gibco). The complete medium was prepared by supplement with 5˜20% fetal calf serum (Gibco), 1% double-antibiotics (10000 units/mL penicillin and 10000 units/mL), 2 mM glutamine or 1 mM sodium pyruvate, respectively.
The human gastric cancer cell line MKN-45 (c-MET amp, ATCC) and the non-small cell lung cancer cell line NCI-H1993 (c-MET amp, ATCC) were cultured in complete medium comprising 1×RPMI1640 and 10% FBS, respectively.
Adherent cells were digested with 0.25% pancreatin-EDTA (Gibco). The suspension cells were collected by centrifugation. The supernatant was discarded and the cell pellet was resuspended and counted. Different cell concentrations (5˜10×10^4 cells/mL) were prepared according to the growth cycle of each cell line and then seeded on a 96-well plate (Corning), 100 μL/well. The cells were incubated overnight at 37° C., 5% CO2. The compounds were added to the cells on the second day with 2 wells in parallel. The final concentration of organic solvent shall not exceed 1%. The cells were continually incubated for 3 to 5 days, and then subjected to MTT assay.
The compound of the present invention and the control compound were dissolved in DMSO (Sigma) respectively, with the purity of more than 98%. The compound was stored in a concentration of 10 mM at −20° C. and diluted to 2- or 10-fold series prior to use.
Dojindo CCK8 reagent kit was used as MTT assay. THERMO […] FC meter was used as microplate reader.
For adherent cells, culture medium was removed and immediately replaced with the fresh prepared medium which contains 10% CCK8 reagent (100 μL/well). For the suspension cells, CCK8 was directly added to 10% of the final concentration. The cells were continually incubated for 1˜4 h. When a dark yellow color could be observed in the solvent control wells, the absorbance value at OD450 nm was measured and the cell growth rate was calculated according to the following formula: Cell Growth Rate (%)=100*(T−T0)/(C−T0) T=optical density of drug treatment cell well—optical density of blank control well; T0=optical density of cell well before drug treatment—optical density of blank control well; C=optical density of cell well of solvent control group—optical density of blank control well. The concentration value of 50% inhibition of cell growth (GI50) was calculated according to the drug concentration and cell growth rate curve. The experiment was independently repeated 1˜3 times, and subject to biological statistical analysis. 4. Experimental Results
Tumor cell growth inhibition test was performed by selecting representative compounds (compounds 4, 11, 12, 16, 27, 68, 71, 77, 79, 89 and 116 of the present invention). The initial concentration of the compound was 5,000 nM, then it was serially diluted by 2-fold or 10-fold to 0.01 nM. The GI50 value of each test compound was calculated according to the GI50 assay and calculation method. The experiments were repeated 1 to 3 times, and data were subjected to biological statistical analysis.

Some results are limits rather than exact numbers.

As to `CC(C)(C)c1cc(NC(=O)Nc2ccc(-n3cnc4cc(O)ccc43)cc2)no1` [Compound 4, 1-(5-tert-butyl-isoxazol-3-yl)-3-[4-(5-hydroxy-benzimidazol-1-yl)-phenyl]-urea], the GI50 was > 1000 nM in experiment [1] and > 2500 nM in the experiment with NCI-H1993 (c-MET amp).

In the case of `CC(C)(C)c1cc(NC(=O)Nc2ccc(-n3cnc4cc(OCCO)ccc43)cc2)no1` [Compound 11, 1-(5-tert-butyl-isoxazol-3-yl)-3-{4-[5-(2-hydroxy-ethoxyl)-benzimidazol-1-yl]-phenyl]-urea], the GI50 in experiment [1] was > 1000 nM; in the experiment on NCI-H1993 (c-MET amp), > 2500 nM.

Turning to `CC(C)(C)c1cc(NC(=O)Nc2ccc(-n3cnc4cc(OCCN5CCOCC5)ccc43)cc2)no1` [Compound 16, 1-(5-tert-butyl-isoxazol-3-yl)-3-{4-[5-(2-morpholin-4-yl-ethoxyl)-benzimidazol-1-yl]-phenyl}-urea], the GI50 in experiment [1] is > 1000 nM; in the experiment on NCI-H1993 (c-MET amp), > 2500 nM.

`CC(C)(C)c1cc(NC(=O)Nc2ccc(-n3cnc4ccc(OCCN5CCOCC5)cc43)cc2)no1` [Compound 27, 1-(5-tert-butyl-isoxazol-3-yl)-3-{4-[6-(2morpholin-4-yl-ethoxyl)-benzimidazol-1-yl]-phenyl}-urea]: the GI50 in experiment [1] is 100 to 1000 nM; with NCI-H1993 (c-MET amp), > 2500 nM.

For `CC(C)(C)c1cc(NC(=O)Nc2ccc(-n3cnc4ccccc43)cc2)[nH]n1` [Compound 68, 1-(4-benzimidazol-1-yl-phenyl)-3-(5-tert-butyl-2H-pyrazol-3-yl)-urea], the GI50 in experiment [1] was > 1000 nM; with NCI-H1993 (c-MET amp), > 2500 nM.

On to `COc1ccc2c(c1)ncn2-c1ccc(NC(=O)Nc2cc(C(C)(C)C)n[nH]2)cc1` [Compound 71, 1-(5-tert-butyl-2H-pyrazol-3-yl)-3-[4-(5-methoxyl-benzimidazol-1-yl)-phenyl]-urea], for which the GI50 in experiment [1] was > 1000 nM; with NCI-H1993 (c-MET amp), > 2500 nM.

For the molecule `COCCOc1ccc2c(c1)ncn2-c1ccc(NC(=O)Nc2cc(C(C)(C)C)n[nH]2)cc1` [Compound 77, 1-(5-tert-butyl-2H-pyrazol-3-yl)-3-{4-[5-(2-methoxyl-ethoxyl)-benzimidazol-1-yl]-phenyl}-urea], the GI50 in experiment [1] is > 1000 nM; in the experiment with NCI-H1993 (c-MET amp), > 2500 nM.

In the case of `CC(C)(C)c1cc(NC(=O)Nc2ccc(-n3cnc4cc(OCCO)ccc43)cc2)[nH]n1` [Compound 79, 1-(5-tert-butyl-2H-pyrazol-3-yl)-3-{4-[5-(2-hydroxy-ethoxyl)-benzimidazol-1-yl]-phenyl]urea], the GI50 in experiment [1] was > 1000 nM; with NCI-H1993 (c-MET amp) it was > 2500 nM.

With `CC(C)(C)c1cc(NC(=O)Nc2ccc(-n3cnc4cc(OCCN5CCOCC5)ccc43)cc2)[nH]n1` [Compound 89, 1-(5-tert-butyl-2H-pyrazol-3-yl)-3-{4-[5-(2-morpholin-4-yl-ethoxyl)-benzimidazol-1-yl]-phenyl}-urea], the GI50 in experiment [1] was 100 to 1000 nM; in the experiment with NCI-H1993 (c-MET amp), > 2500 nM.

In the case of `CC(C)(C)c1cc(N)n(C(=O)Nc2ccc(-n3cnc4ccccc43)cc2)n1` [Compound 116, 5-amino-3-tert-butyl-pyrazol-1-carboxylic acid (4-benzimidazol-1-yl-phenyl)-amide], the GI50 in experiment [1] is > 1000 nM; with NCI-H1993 (c-MET amp) it was > 2500 nM.

For the origin of these results see US10647680B2, “Urea compound, preparation method therefor and medical use thereof” (Ancureall Pharmaceutical (Shanghai) Co., Ltd., priority 2016, dated 2020).
